From ChEMBL document CHEMBL5678816, “A Next-Generation TRK Kinase Inhibitor Overcomes Acquired Resistance to Prior TRK Kinase Inhibition in Patients with TRK Fusion-Positive Solid Tumors” (Cancer Discov, 2017)
Active and inactive are the calls of the source. The calls are words filed in the database; no cut-off is given here.

Assays:
[1] = Inhibition of N-terminal 3FLAG-tagged ETV6-TRKC G623R mutant (unknown origin) expressed in NIH3T3 cells assessed as ERK1/2 phosphorylation incubated for 1 hrs by flow cytometric analysis; type: cell-based, Homo sapiens
[2] = tested on: NIH3T3; assay: Antitumor activity against mouse NIH3T3 cells harboring extracellular domain deleted TRKA G595R mutant implanted in nu/nu NCr mouse assessed as inhibition of tumor growth at 30 to 300 mg/kg, po administered twice daily for 12 days; type: functional, organism-based; details: dose 30-300 mg/kg, time 12.0 day
[3] = Toxicity in nu/nu NCr mouse implanted with mouse NIH3T3 cells harboring extracellular domain deleted TRKA G595R mutant assessed as body weight loss at 30 to 300 mg/kg, po administered twice daily for 12 days relative to control; type: organism-based; details: in vivo, 288 h, dose 30-300 mg/kg, time 12 day
[4] = tested on: Rec1; assay: Inhibition of cell proliferation in human REC1 cells upto 10 umol/L incubated for 72 hrs by DAPI staining based analysis; type: functional; details: dose <= 10.0 µmol/L
[5] = tested on: RT112/84; assay: Inhibition of cell proliferation in human RT112/84 cells upto 10 umol/L incubated for 72 hrs by DAPI staining based analysis; type: functional; details: dose <= 10.0 µmol/L
[6] = tested on: SCaBER; assay: Inhibition of cell proliferation in human SCaBER cells upto 10 umol/L incubated for 72 hrs by DAPI staining based analysis; type: functional; details: dose <= 10.0 µmol/L
[7] = Cmax in adult patient with recurrent LMNA-NTRK1 rearranged colorectal cancer at 50 mg administered twice a day as powder-in-capsule or liquid formulation for 1 day by LC-MS/MS analysis; type: ADME; details: human, in vivo, po
[8] = AUC in pediatric patient with recurrent ETV6-NTRK3-rearranged infantile fibrosarcoma at 60 mg administered twice a day as liquid formulation for 8 day by LC-MS/MS analysis; type: ADME; details: human, in vivo
[9] = target: Tyrosine-protein kinase Fyn (Homo sapiens) (UniProt P06241); assay: Inhibition of Fyn (unknown origin) at 1 uM in presence of ATP relative to control; values are per cent of control
[10] = target: Hepatocyte growth factor receptor (Homo sapiens) (UniProt P08581); assay: Inhibition of Met (unknown origin) at 1 uM in presence of ATP relative to control; values are per cent of control
[11] = target: RAC-alpha serine/threonine-protein kinase (Homo sapiens) (UniProt P31749); assay: Inhibition of AKT1 (unknown origin) at 1 uM in presence of ATP relative to control; values are per cent of control
[12] = target: Myotonin-protein kinase (Homo sapiens) (UniProt Q09013); assay: Inhibition of DMPK (unknown origin) at 1 uM in presence of ATP relative to control; values are per cent of control
[13] = target: Rhodopsin kinase GRK7 (Homo sapiens) (UniProt Q8WTQ7); assay: Inhibition of GRK7 (unknown origin) at 1 uM in presence of ATP relative to control; values are per cent of control
[14] = target: Ribosomal protein S6 kinase alpha-3 (Homo sapiens) (UniProt P51812); assay: Inhibition of Rsk2 (unknown origin) at 1 uM in presence of ATP relative to control; values are per cent of control
[15] = target: Serine/threonine-protein kinase TBK1 (Homo sapiens) (UniProt Q9UHD2); assay: Inhibition of TBK1 (unknown origin) at 1 uM in presence of ATP relative to control; values are per cent of control
[16] = target: Serine/threonine-protein kinase tousled-like 2 (Homo sapiens) (UniProt Q86UE8); assay: Inhibition of TLK2 (unknown origin) at 1 uM in presence of ATP relative to control; values are per cent of control
[17] = target: Discoidin domain-containing receptor 2 (Homo sapiens) (UniProt Q16832); assay: Inhibition of DDR2 (unknown origin) at 1 uM in presence of ATP relative to control; values are per cent of control
[18] = target: Ephrin type-A receptor 1 (Homo sapiens) (UniProt P21709); assay: Inhibition of EphA1 (unknown origin) at 1 uM in presence of ATP relative to control; values are per cent of control
[19] = target: Fibroblast growth factor receptor 2 (Homo sapiens) (UniProt P21802); assay: Inhibition of FGFR2 (unknown origin) at 1 uM in presence of ATP relative to control; values are per cent of control
[20] = target: Fibroblast growth factor receptor 4 (Homo sapiens) (UniProt P22455); assay: Inhibition of FGFR4 (unknown origin) at 1 uM in presence of ATP relative to control; values are per cent of control
[21] = target: Calcium/calmodulin-dependent protein kinase type II subunit beta (Homo sapiens) (UniProt Q13554); assay: Inhibition of CAMK2b (unknown origin) at 1 uM in presence of ATP relative to control; values are per cent of control
[22] = target: Calcium/calmodulin-dependent protein kinase type II subunit delta (Homo sapiens) (UniProt Q13557); assay: Inhibition of CAMK2d (unknown origin) at 1 uM in presence of ATP relative to control; values are per cent of control
[23] = target: Mitogen-activated protein kinase kinase kinase 5 (Homo sapiens) (UniProt Q99683); assay: Inhibition of MAP3K5 (unknown origin) at 1 uM in presence of ATP relative to control; values are per cent of control
[24] = target: Protein kinase C beta type (Homo sapiens) (UniProt P05771); assay: Inhibition of PKCbetal (unknown origin) at 1 uM in presence of ATP relative to control; values are per cent of control
[25] = target: Cyclin-dependent kinase 5/CDK5 activator 1 (Homo sapiens) (UniProt Q00535+Q15078); assay: Inhibition of CDK5/p35 (unknown origin) at 1 uM in presence of ATP relative to control; values are per cent of control
[26] = target: Mitogen-activated protein kinase 13 (Homo sapiens) (UniProt O15264); assay: Inhibition of […] (unknown origin) at 1 uM in presence of ATP relative to control; values are per cent of control
[27] = target: Casein kinase I isoform gamma-2 (Homo sapiens) (UniProt P78368); assay: Inhibition of CK1gamma2 (unknown origin) at 1 uM in presence of ATP relative to control; values are per cent of control

Hepatocyte growth factor receptor (Homo sapiens), sequence (P08581 whole entry): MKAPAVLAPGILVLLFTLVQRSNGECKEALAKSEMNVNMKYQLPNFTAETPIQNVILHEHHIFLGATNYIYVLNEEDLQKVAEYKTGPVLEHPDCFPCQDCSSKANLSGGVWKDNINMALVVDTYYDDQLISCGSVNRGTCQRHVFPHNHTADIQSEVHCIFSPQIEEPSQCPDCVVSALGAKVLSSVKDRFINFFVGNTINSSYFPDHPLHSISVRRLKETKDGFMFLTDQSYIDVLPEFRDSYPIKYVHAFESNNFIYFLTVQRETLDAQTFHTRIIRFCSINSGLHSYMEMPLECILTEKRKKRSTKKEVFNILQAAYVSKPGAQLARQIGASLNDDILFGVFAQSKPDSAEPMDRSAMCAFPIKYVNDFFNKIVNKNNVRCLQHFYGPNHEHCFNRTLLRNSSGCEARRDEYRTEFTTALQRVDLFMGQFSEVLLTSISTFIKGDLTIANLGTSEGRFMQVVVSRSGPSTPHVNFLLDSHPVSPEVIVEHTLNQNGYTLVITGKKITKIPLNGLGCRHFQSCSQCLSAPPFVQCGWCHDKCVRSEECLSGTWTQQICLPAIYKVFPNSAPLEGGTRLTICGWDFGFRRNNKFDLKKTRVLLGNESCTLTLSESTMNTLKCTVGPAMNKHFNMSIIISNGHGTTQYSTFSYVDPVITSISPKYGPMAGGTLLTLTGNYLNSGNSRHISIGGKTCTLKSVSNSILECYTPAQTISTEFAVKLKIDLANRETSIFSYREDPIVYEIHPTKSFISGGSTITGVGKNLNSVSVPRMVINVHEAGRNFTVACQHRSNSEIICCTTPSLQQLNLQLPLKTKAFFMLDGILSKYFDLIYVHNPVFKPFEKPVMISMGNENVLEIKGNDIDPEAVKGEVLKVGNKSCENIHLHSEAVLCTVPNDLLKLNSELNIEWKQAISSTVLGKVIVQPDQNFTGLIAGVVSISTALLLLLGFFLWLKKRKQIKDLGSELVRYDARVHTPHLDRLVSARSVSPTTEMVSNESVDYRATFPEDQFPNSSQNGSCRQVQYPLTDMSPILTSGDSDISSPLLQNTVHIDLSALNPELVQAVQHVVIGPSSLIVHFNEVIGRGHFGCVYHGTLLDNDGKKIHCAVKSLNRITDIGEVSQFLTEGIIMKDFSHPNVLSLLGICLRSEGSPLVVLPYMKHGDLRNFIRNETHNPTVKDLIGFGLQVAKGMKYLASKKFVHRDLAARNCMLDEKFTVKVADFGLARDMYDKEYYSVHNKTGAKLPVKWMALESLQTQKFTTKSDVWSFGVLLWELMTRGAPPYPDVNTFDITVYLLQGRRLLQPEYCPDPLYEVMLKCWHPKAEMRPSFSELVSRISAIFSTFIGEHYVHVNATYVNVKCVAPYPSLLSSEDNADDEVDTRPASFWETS
Mitogen-activated protein kinase kinase kinase 5 (Homo sapiens), sequence (Q99683 whole entry): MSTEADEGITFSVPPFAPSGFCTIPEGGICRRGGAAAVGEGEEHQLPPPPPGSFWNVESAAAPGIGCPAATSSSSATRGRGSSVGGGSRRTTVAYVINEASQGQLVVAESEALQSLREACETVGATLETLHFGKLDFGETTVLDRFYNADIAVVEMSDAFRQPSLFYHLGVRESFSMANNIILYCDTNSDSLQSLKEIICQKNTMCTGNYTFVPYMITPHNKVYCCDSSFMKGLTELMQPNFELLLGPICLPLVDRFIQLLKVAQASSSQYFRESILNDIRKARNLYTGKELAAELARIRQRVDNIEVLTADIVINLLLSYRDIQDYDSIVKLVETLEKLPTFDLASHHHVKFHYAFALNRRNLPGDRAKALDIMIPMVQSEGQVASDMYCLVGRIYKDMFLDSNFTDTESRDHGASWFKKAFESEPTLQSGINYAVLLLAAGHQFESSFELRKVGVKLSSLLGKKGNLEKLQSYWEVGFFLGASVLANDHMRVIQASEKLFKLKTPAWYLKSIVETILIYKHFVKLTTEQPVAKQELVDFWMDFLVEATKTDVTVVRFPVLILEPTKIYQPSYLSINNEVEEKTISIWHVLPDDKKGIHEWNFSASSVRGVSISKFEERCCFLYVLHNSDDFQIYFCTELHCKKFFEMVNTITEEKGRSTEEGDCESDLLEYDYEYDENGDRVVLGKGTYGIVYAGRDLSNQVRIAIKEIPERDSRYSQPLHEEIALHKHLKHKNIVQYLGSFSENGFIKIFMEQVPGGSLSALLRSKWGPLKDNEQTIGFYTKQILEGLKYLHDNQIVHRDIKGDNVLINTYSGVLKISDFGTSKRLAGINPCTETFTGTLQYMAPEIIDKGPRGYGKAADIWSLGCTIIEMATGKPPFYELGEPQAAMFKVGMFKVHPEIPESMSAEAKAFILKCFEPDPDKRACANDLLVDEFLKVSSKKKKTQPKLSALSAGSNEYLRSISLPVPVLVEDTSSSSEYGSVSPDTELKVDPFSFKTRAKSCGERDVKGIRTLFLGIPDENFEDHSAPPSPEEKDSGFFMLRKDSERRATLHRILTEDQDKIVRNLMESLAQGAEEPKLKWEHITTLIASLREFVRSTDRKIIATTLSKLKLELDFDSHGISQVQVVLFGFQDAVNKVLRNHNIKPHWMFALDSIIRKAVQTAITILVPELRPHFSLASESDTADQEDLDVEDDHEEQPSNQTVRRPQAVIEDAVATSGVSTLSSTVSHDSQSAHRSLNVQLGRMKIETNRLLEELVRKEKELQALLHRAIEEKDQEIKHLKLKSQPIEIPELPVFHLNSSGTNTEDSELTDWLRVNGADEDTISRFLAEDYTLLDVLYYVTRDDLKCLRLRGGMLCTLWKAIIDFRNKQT
Serine/threonine-protein kinase TBK1 (Homo sapiens), sequence (Q9UHD2 whole entry): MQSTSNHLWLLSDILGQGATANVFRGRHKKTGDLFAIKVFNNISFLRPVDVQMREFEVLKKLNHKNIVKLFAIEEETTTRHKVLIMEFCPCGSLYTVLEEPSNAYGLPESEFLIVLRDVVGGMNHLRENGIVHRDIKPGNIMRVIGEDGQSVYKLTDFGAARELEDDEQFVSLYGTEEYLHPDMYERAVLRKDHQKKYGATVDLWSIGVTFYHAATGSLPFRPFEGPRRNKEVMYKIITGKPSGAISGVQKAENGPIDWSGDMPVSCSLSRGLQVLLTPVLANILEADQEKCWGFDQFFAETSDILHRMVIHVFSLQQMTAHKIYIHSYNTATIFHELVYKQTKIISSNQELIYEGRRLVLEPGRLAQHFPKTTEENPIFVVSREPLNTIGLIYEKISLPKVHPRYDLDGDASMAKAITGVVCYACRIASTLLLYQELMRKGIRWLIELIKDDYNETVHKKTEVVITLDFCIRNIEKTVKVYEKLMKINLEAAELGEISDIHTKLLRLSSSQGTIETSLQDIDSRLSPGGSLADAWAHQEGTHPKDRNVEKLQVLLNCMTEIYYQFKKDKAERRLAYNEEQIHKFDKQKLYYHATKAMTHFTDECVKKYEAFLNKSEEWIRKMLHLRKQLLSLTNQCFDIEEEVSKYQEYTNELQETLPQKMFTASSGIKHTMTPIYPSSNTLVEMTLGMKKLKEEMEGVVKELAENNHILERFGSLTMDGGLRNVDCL
Calcium/calmodulin-dependent protein kinase type II subunit delta (Homo sapiens), sequence (Q13557 whole entry): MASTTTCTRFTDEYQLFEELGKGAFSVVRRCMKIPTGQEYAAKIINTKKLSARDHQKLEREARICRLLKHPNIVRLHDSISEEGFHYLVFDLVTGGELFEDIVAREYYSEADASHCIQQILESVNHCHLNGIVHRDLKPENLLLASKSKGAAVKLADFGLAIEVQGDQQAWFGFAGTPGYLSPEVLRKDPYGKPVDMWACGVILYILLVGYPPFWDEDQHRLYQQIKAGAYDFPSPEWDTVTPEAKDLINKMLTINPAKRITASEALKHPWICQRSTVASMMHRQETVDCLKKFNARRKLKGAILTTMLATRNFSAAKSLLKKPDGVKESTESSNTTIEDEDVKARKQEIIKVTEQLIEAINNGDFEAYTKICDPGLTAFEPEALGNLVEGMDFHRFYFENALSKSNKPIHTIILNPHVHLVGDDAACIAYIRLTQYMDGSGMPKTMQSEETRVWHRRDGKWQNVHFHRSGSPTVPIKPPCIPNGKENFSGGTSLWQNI
Fibroblast growth factor receptor 2 (Homo sapiens), sequence (P21802 22-821 limits assumed): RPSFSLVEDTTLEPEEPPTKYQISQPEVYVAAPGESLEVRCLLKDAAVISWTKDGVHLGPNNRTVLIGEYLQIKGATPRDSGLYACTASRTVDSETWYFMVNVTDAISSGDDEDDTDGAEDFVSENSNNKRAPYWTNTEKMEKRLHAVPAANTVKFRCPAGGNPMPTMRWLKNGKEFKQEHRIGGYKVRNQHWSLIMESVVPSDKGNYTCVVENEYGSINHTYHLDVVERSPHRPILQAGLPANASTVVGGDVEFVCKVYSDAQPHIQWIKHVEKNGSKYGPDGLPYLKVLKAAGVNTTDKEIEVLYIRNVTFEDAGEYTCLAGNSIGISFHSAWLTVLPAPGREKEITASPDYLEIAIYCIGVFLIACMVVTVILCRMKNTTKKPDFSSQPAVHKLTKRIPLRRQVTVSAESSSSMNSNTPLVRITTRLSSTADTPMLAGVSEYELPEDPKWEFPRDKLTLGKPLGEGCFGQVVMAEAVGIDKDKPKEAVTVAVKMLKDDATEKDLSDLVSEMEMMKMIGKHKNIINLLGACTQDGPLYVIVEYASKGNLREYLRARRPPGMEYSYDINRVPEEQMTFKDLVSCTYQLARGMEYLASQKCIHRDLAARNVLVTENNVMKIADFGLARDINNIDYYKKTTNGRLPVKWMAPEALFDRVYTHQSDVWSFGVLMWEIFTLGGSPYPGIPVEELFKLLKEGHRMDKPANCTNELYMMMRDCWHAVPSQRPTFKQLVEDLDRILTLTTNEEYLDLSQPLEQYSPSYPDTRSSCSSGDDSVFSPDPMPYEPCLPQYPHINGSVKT

IC50 [1]: 45.5 nM
Cmax [7]: 350 ng/mL
AUC at 192 h [8]: 2010 ng·h/mL
residual activity [9]: 90.5%
residual activity [10]: 109%
residual activity [11]: 120%
residual activity [12]: 106%
residual activity [13]: 70.5%
residual activity [14]: 134%
residual activity [15]: 111%
residual activity [16]: 108%
residual activity [17]: 93%
residual activity [18]: 74%
residual activity [19]: 96.5%
residual activity [20]: 128%
residual activity [21]: 100%
residual activity [22]: 100%
residual activity [23]: 106%
residual activity [24]: 108%
residual activity [25]: 110%
residual activity [26]: 110%
residual activity [27]: 112%
SMILES: C[C@@H]1CCc2ncc(F)cc2[C@H]2CCCN2c2ccn3ncc(c3n2)C(=O)N1 [SELITRECTINIB]
Activity [2]: Active
Activity [3]: < 5%
inhibition [4]: inactive
inhibition [5]: inactive
inhibition [6]: inactive
